Laboratory results as given in PMC11413854, “Reversible Control of Native GluN2B-Containing NMDA Receptors with Visible Light” (ACS Chemical Neuroscience, 2024).
“And” between values parts separate entries of the source, which are not always exact repeats. Identical values can stand only once.

System: native NMDA currents of cultured cortical neurons
Experiment: Whole-cell patch-clamp of NMDA currents in cultured cortical neurons (DIV 6-8), spectral dependence of bound OptoNAM-3
Type: cell-based, mouse
Details: for inhibition of NMDA currents in cortical neurons: 2 µM
Procedure: We then turned to native NMDA currents. We repeated these experiments on cultured cortical neurons at days in vitro [DIV] 6–8, a stage at which GluN2B-containing NMDARs form the major population of neuronal NMDARs.[48] On cortical neurons, 2 μM OptoNAM-3 induced 70% inhibition of NMDA-induced currents in the dark. The lower inhibitory effect of trans-OptoNAM-3 on neurons compared to HEK cells is most likely due to the mixture of NMDAR subtypes expressed in neurons.[48] […] This effect is furthermore partially reversible thanks to the use of 550 nm light.
Mice were housed in the IBENS rodent central facility duly accredited by the French Ministry of Agriculture. All experiments were performed in compliance with French and European regulations on care and protection of laboratory animals (EU Directive 2010/63, French Law 2013–118, February 6, 2013), and were approved by local ethics committees and by the French Ministry of Research and Innovation (authorization numbers #05137.02, APAFIS #28867-2020121814485893). Dissociated cultures of cortical neurons were prepared from mouse embryos at E18 as described previously.[84] After removing meninges, cortices were placed in ice-cold HBSS solution. Cell dissociation was performed individually for cortices of each embryo. Cortices were incubated in 2.5% trypsin at 37 °C for 7 min, rinsed three times with 37 °C phosphate buffer saline, and finally suspended in plating medium (Neurobasal Medium, supplemented with 0.5 mM L-glutamine, 1% B27 supplement, and penicillin/streptomycin). The neurons were further dissociated by trituration, and cells were plated on poly-D-lysine coated coverslips in 24-well culture dishes at a density of 3 × 10^5 cells per well for the excitotoxicity test and that of 1 × 10^5 cells per well for patch clamp experiments. Cultures were incubated at 37 °C in a humidified atmosphere of 5% CO2. Cells were fed by changing 1/2 medium to fresh Neurobasal medium every 4 days. For the excitotoxicity experiments, after 5 days in vitro, growth of non-neuronal cells was halted by a 24 h exposure to FDX ([…] 5-fluoro-2′-deoxyuridine). The cultures were used for experiments after 6 to 14 days in vitro (DIV6–8 for patch clamp experiments and DIV14 for excitotoxicity tests).
Whole-cell patch-clamp recordings on neurons were performed 6 to 8 days after the culturing step (DIV 6–8) using the same recording conditions as for HEK cells. Recordings were performed at a holding potential of −60 mV and at room temperature. Currents were elicited by NMDA (300 μM) and D-serine (50 μM) to specifically activate NMDARs.
OptoNAM-3 was perfused in the dark onto the patched neuron (Figure 5A–C). […] Stopping perfusion ensures that trans-OptoNAM coming from the perfusion tube […] with the wavelength PSS during the illumination procedure.
OptoNAM-3 was perfused in the dark onto the patched neuron (Figures 4G,H and 5F,H). […] Then, wavelengths from 435 to 580 nm were applied and the inhibition recovery was monitored.
For the trans to cis and cis to trans isomerization study in the binding site (Figure 5C,H respectively), we decided to normalize (scale) the inhibition values of OptoNAM-3 at different wavelengths by the inhibition induced by OptoNAM-3 at 365 nm and in the dark since these two conditions represent respectively the minimum and maximum of the inhibition. We followed this equation: [drawing 2] where m ∈ [r365,rdark] is the measurement (inhibition) to be scaled, r365 and rdark correspond to the minimum (365 nm state inhibition) and maximum (dark state inhibition) of the measurement, respectively, and t365 and tdark represent the minimum and maximum of the range (OptoNAM-3 365 nm PSS and dark PSS mean inhibition). To reduce the decreasing effect of normalization onto SEM, the SEMs represented in the figures were calculated with the data injected in the first part of the equation ( [drawing 3] ). […]

c1ccc(/N=N/c2ccc(CCNc3ccncc3)cc2)cc1 [OptoNAM-3, (E)-N-(4-(Phenyldiazenyl)phenethyl)pyridin-4-amine]
inhibition of NMDA currents in cortical neurons (365 nm irradiation on the cell (Fig 5C)): 27% ± 2% | inhibition of NMDA currents in cortical neurons (550 nm illumination from UV state (Fig 4H)): 52% ± 3% and 52.150% | inhibition of NMDA currents in cortical neurons (550 nm post 365 nm illumination (Fig 5H)): 55% ± 4% | inhibition of NMDA currents in cortical neurons (dark, NMDA 300 µM + D-serine 50 µM): 70% ± 3% and 70.580% | inhibition of NMDA currents in cortical neurons (under 365 nm illumination (Fig 4H)): 25% ± 4% and 25.090% | proportion of cis isomer, bound OptoNAM-3 365 nm PSS (365 nm on the cell, calculated from inhibition): ~90% | proportion of cis isomer, bound OptoNAM-3 (460 nm light from dark state, calculated from inhibition): ~68% | trans-to-cis isomerization in the binding site (550 and 580 nm applied from the dark state): did not induce visible trans-to-cis isomerization | % Inhibition (normalized), mean (Figure 5C series (from dark PSS), 365 nm): 27.607% | % Inhibition (normalized), mean (Figure 5C series (from dark PSS), 435 nm): 44.741% | % Inhibition (normalized), mean (Figure 5C series (from dark PSS), 460 nm): 50.648% | % Inhibition (normalized), mean (Figure 5C series (from dark PSS), 490 nm): 64.437% | % Inhibition (normalized), mean (Figure 5C series (from dark PSS), 525 nm): 71.178% | % Inhibition (normalized), mean (Figure 5C series (from dark PSS), 550 nm): 73.370% | % Inhibition (normalized), mean (Figure 5C series (from dark PSS), 580 nm): 73.446% | % Inhibition (normalized), mean (Figure 5C series, dark): 73.585% | % Inhibition (normalized), mean (Figure 5H series (from 365 nm PSS), 365 nm): 27.795% | % Inhibition (normalized), mean (Figure 5H series (from 365 nm PSS), 435 nm): 27.982% | % Inhibition (normalized), mean (Figure 5H series (from 365 nm PSS), 460 nm): 29.032% | % Inhibition (normalized), mean (Figure 5H series (from 365 nm PSS), 490 nm): 44.081% | % Inhibition (normalized), mean (Figure 5H series (from 365 nm PSS), 525 nm): 43.503% | % Inhibition (normalized), mean (Figure 5H series (from 365 nm PSS), 550 nm): 54.910% | % Inhibition (normalized), mean (Figure 5H series (from 365 nm PSS), 580 nm): 47.001% | % Inhibition (normalized), mean (Figure 5H series, dark): 73.111% | proportion of trans isomer, bound OptoNAM-3 (at 365, 435 and 460 nm post 365 nm illumination, calculated from inhibition): ~10%
